#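 Tested at 5 concentrations; 48 h exposure; 96-well plates; endpoints linearly interpolated, else capped at highest concentration. Abbreviation: GI50, concentration required for 50% inhibition of growth.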 Activity calls are given as the source filed them. Rule as the data show it: active = GI50 up to about 1.1 µM and inactive = higher.
# How the values were obtained:
# Test in all cases: NCI anticancer screen, dose series, 48 h
# OVCAR-5 = test system: OVCAR-5
# CCRF-CEM = test system: CCRF-CEM
# A498 = test system: A498
# SR = test system: SR
# SF-268 = test system: SF-268
# CAKI-1 = test system: CAKI-1
# HCC 2998 = test system: HCC 2998
# LOX IMVI = test system: LOX IMVI
# MOLT-4 = test system: MOLT-4
# NCI-H522 = test system: NCI-H522
# SF-295 = test system: SF-295
# UO-31 = test system: UO-31
# K562 = test system: K562
# HCT-15 = test system: HCT-15
# SNB-19 = test system: SNB-19
# Hs-578T = test system: Hs-578T
# OVCAR-8 = test system: OVCAR-8
# 786-0 = test system: 786-0
# DU-145 = test system: DU-145
# HL-60 = test system: HL-60
# T47D = test system: T47D
# NCI-H226 = test system: NCI-H226
# HOP-92 = test system: HOP-92
# Malme-3M = test system: Malme-3M
# A549 = test system: A549
# MDA-MB-231 = test system: MDA-MB-231
# BT-549 = test system: BT-549
# SF-539 = test system: SF-539
# HOP-62 = test system: HOP-62
# SK-OV-3 = test system: SK-OV-3
# MDA-N = test system: MDA-N
# NCI-H23 = test system: NCI-H23
# SN12C = test system: SN12C
# KM12 = test system: KM12
# SK-MEL-28 = test system: SK-MEL-28
# SW-620 = test system: SW-620
# ACHN = test system: ACHN
# TK-10 = test system: TK-10
# MDA-MB-435 = test system: MDA-MB-435
# PC-3 = test system: PC-3
# MCF7 = test system: MCF7
# SNB-75 = test system: SNB-75
# NCI-H460 = test system: NCI-H460
# OVCAR-4 = test system: OVCAR-4
# U-251 = test system: U-251
# EKVX = test system: EKVX
# SK-MEL-5 = test system: SK-MEL-5
# IGROV-1 = test system: IGROV-1
# HT-29 = test system: HT-29
# UACC-62 = test system: UACC-62
# NCI/ADR-RES = test system: NCI/ADR-RES
# RXF 393 = test system: RXF 393
# SK-MEL-2 = test system: SK-MEL-2
# HCT-116 = test system: HCT-116
# UACC-257 = test system: UACC-257
# COLO 205 = test system: COLO 205
# M14 = test system: M14
# OVCAR-3 = test system: OVCAR-3
# RPMI-8226 = test system: RPMI-8226
compound,measurement,setting,value
COC(=O)[C@H]1[C@@H](O)[C@@]2(O)c3c(OC)cc(OC)cc3O[C@@]2(c2ccc3c(c2)OCO3)[C@@H]1c1ccccc1,GI50,OVCAR-5,9.53 nM (active)
same,GI50,CCRF-CEM,6.07 nM (active)
same,GI50,A498,14.4 nM (active)
same,GI50,SR,< 5 nM (active)
same,GI50,SF-268,11.7 nM (active)
same,GI50,CAKI-1,8.93 nM (active)
same,GI50,HCC 2998,8.38 nM (active)
same,GI50,LOX IMVI,5.25 nM (active)
same,GI50,MOLT-4,< 5 nM (active)
same,GI50,NCI-H522,< 12.2 nM (active)
same,GI50,SF-295,5.78 nM (active)
same,GI50,UO-31,6.04 nM (active)
same,GI50,K562,< 5 nM (active)
same,GI50,HCT-15,< 5 nM
same,GI50,SNB-19,< 5 nM (active)
same,GI50,Hs-578T,14.6 nM (active)
same,GI50,OVCAR-8,25.3 nM (active)
same,GI50,786-0,6.25 nM (active)
same,GI50,DU-145,8.73 nM (active)
same,GI50,HL-60,6.29 nM (active)
same,GI50,T47D,5.16 nM (active)
same,GI50,NCI-H226,13.6 nM (active)
same,GI50,HOP-92,40.8 nM (active)
same,GI50,Malme-3M,16.8 nM (active)
same,GI50,A549,< 5 nM (active)
same,GI50,MDA-MB-231,13.6 nM (active)
same,GI50,BT-549,21.9 nM (active)
same,GI50,SF-539,< 5 nM (active)
same,GI50,HOP-62,8.79 nM (active)
same,GI50,SK-OV-3,5.39 nM (active)
same,GI50,MDA-N,5.13 nM (active)
same,GI50,NCI-H23,6.17 nM (active)
same,GI50,SN12C,7.6 nM (active)
same,GI50,KM12,< 5 nM (active)
same,GI50,SK-MEL-28,8.15 nM (active)
same,GI50,SW-620,< 5 nM (active)
same,GI50,ACHN,< 5 nM (active)
same,GI50,TK-10,6.84 nM (active)
same,GI50,MDA-MB-435,6.03 nM (active)
same,GI50,PC-3,11.3 nM (active)
same,GI50,MCF7,< 5 nM (active)
same,GI50,SNB-75,14.6 nM (active)
same,GI50,NCI-H460,< 5 nM (active)
same,GI50,OVCAR-4,14.9 nM (active)
same,GI50,U-251,7.06 nM (active)
same,GI50,EKVX,17 nM (active)
same,GI50,SK-MEL-5,7.57 nM (active)
same,GI50,IGROV-1,5.18 nM (active)
same,GI50,HT-29,< 5 nM (active)
same,GI50,UACC-62,22.2 nM (active)
same,GI50,NCI/ADR-RES,8.93 nM (active)
same,GI50,RXF 393,64.7 nM (active)
same,GI50,SK-MEL-2,20.7 nM (active)
same,GI50,HCT-116,< 5 nM (active)
same,GI50,UACC-257,8.26 nM (active)
same,GI50,COLO 205,7.36 nM (active)
same,GI50,M14,6.03 nM (active)
same,GI50,OVCAR-3,22.5 nM (active)
same,GI50,RPMI-8226,< 5 nM (active)
Cc1ccc(NC(Nc2ccc(C)cc2C)=C(/C=C(\Cl)[N+](=O)[O-])[N+](=O)[O-])c(C)c1,GI50,OVCAR-5,4360 nM (inactive)
same,GI50,CCRF-CEM,301 nM (active)
same,GI50,A498,18200 nM (inactive)
same,GI50,SR,1280 nM (inactive)
same,GI50,SF-268,4820 nM (inactive)
same,GI50,CAKI-1,2080 nM (inactive)
same,GI50,HCC 2998,23300 nM (inactive)
same,GI50,LOX IMVI,1640 nM (inactive)
same,GI50,MOLT-4,1530 nM (inactive)
same,GI50,NCI-H522,2370 nM (inactive)
same,GI50,SF-295,16600 nM (inactive)
same,GI50,UO-31,5900 nM (inactive)
same,GI50,K562,1460 nM (inactive)
same,GI50,HCT-15,2920 nM
same,GI50,SNB-19,12900 nM (inactive)
same,GI50,Hs-578T,6710 nM (inactive)
same,GI50,OVCAR-8,2810 nM (inactive)
same,GI50,786-0,2810 nM (inactive)
same,GI50,DU-145,18500 nM (inactive)
same,GI50,HL-60,592 nM (active)
same,GI50,T47D,1720 nM (inactive)
same,GI50,NCI-H226,7000 nM (inactive)
same,GI50,HOP-92,1450 nM (inactive)
same,GI50,Malme-3M,3090 nM (inactive)
same,GI50,A549,17300 nM (inactive)
same,GI50,MDA-MB-231,4940 nM (inactive)
same,GI50,BT-549,3460 nM (inactive)
same,GI50,SF-539,8850 nM (inactive)
same,GI50,HOP-62,17700 nM (inactive)
same,GI50,SK-OV-3,5180 nM (inactive)
same,GI50,MDA-N,3370 nM (inactive)
same,GI50,NCI-H23,5940 nM (inactive)
same,GI50,SN12C,4530 nM (inactive)
same,GI50,KM12,10400 nM (inactive)
same,GI50,SK-MEL-28,2340 nM (inactive)
same,GI50,SW-620,1910 nM (inactive)
same,GI50,ACHN,2970 nM (inactive)
same,GI50,TK-10,4370 nM (inactive)
same,GI50,MDA-MB-435,2870 nM (inactive)
same,GI50,PC-3,7030 nM (inactive)
same,GI50,MCF7,2830 nM (inactive)
same,GI50,SNB-75,1110 nM (active)
same,GI50,NCI-H460,16600 nM (inactive)
same,GI50,OVCAR-4,3690 nM (inactive)
same,GI50,U-251,11500 nM (inactive)
same,GI50,EKVX,15200 nM (inactive)
same,GI50,SK-MEL-5,5900 nM (inactive)
same,GI50,IGROV-1,6040 nM (inactive)
same,GI50,HT-29,5430 nM (inactive)
same,GI50,UACC-62,3300 nM (inactive)
same,GI50,NCI/ADR-RES,17100 nM (inactive)
same,GI50,RXF 393,1720 nM (inactive)
same,GI50,SK-MEL-2,4230 nM (inactive)
same,GI50,HCT-116,1700 nM (inactive)
same,GI50,UACC-257,4810 nM (inactive)
same,GI50,COLO 205,2180 nM (inactive)
same,GI50,M14,2210 nM (inactive)
same,GI50,OVCAR-3,2720 nM (inactive)
same,GI50,RPMI-8226,1550 nM (inactive)

# Source: ChEMBL document CHEMBL1201862, “PubChem BioAssay data set” (2004)
